The assay relates to PLC/PRF/5 and MHCC-97L cells. Briefly: Intracellular ROS level in LANCL1-KD HCC cells. Type of assay: cell-based, human. Particulars: addition of oxidizing agent.

`CC(C)(C)OO` [TBHP, tert-Butyl hydroperoxide]: the ROS levels result is on record as “significantly increased”.

These data come from US20230348622A1, “USE OF LANCL1 AND ANTIBODIES THEREOF AS A DIAGNOSTIC AND THERAPEUTIC TARGET FOR THE MANAGEMENT AND TREATMENT OF CANCER” (The University of Hong Kong, priority 2022, published 2023).
